Read-outs that look alike come from different tables or passages of the source.
Legend:
[1] = molecular target: T1, UMPKmt (uridine monophosphate kinase, Rv2883c) (Mycobacterium tuberculosis, UniProt P9WHK5); assay: coupled spectrophotometric kinase assay; format: biochemical
Target sequence in this assay (P9WHK5 whole entry, looked up): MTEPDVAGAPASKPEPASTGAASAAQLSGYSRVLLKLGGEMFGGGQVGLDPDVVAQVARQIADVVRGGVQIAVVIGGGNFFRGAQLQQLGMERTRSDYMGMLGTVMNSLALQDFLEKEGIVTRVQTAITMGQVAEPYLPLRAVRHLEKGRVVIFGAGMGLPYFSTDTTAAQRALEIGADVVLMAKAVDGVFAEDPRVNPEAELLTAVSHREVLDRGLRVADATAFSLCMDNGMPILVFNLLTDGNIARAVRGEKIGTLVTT

[2] = test system: O=c1ccn([C@@H]2O[C@H](COP(=O)(O)O)[C@@H](O)[C@H]2O)c(=O)[nH]1; assay: purified protein
[3] = molecular target: T1, UMPKmt (uridine monophosphate kinase, Rv2883c); assay: coupled spectrophotometric kinase assay; format: biochemical; remark: listed apart in the source
Target sequence in this assay (P9WHK5 whole entry, looked up): as above

[4] = molecular target: T1, UMPKmt (uridine monophosphate kinase, Rv2883c); assay: X-ray crystal structure; format: biochemical
Target sequence in this assay (P9WHK5 whole entry): as the sequence (P9WHK5 whole entry, looked up) above

[5] = molecular target: T1, UMPKmt (uridine monophosphate kinase, Rv2883c); assay: coupled spectrophotometric kinase assay; format: biochemical; remark: listed apart in the source
Target sequence in this assay (P9WHK5 whole entry, looked up): as above

Compound	IC50 [1]	further results
O=c1[nH]c(=O)n([C@@H]2O[C@H](COP(=O)(O)OP(=O)(O)OP(=O)(O)O)[C@@H](O)[C@H]2O)cc1I [5I-UTP]	20 µM	–
O=c1ccn([C@H]2C[C@H](O)[C@@H](COP(=O)(O)OP(=O)(O)OP(=O)(O)O)O2)c(=O)[nH]1 [dUTP]	240 µM	–
UMPKmt (uridine monophosphate kinase, Rv2883c) (Mycobacterium tuberculosis H37Rv)	–	Km [2]: 19.6 ± 1.8 µM
Nc1nc2c(ncn2[C@H]2C[C@H](O)[C@@H](COP(=O)(O)OP(=O)(O)OP(=O)(O)O)O2)c(=O)[nH]1 [dGTP]	–	coupled spectrophotometric kinase assay (activation, similar to GTP) [3]: dGTP, Mant-GTP and 6-methylthio GTP exhibited similar properties to GTP in terms of both affinity and extent of activation
Cc1cn([C@H]2C[C@H](O)[C@@H](COP(=O)(O)OP(=O)(O)OP(=O)(O)O)O2)c(=O)[nH]c1=O [dTTP]	400 µM	–
O=c1[nH]c(=O)n([C@@H]2O[C@H](COP(=O)(O)OP(=O)(O)OP(=O)(O)O)[C@@H](O)[C@H]2O)cc1Br [5Br-UTP]	100 µM	–
Nc1nc2c(ncn2[C@@H]2O[C@H](COP(=O)(O)OP(=O)(O)OP(=O)(O)O)[C@@H](O)[C@H]2O)c(=O)[nH]1 [GTP]	–	EC50 [4]: 100 µM
O=c1ccn([C@@H]2O[C@H](COP(=O)(O)OP(=O)(O)OP(=O)(O)O)[C@@H](O)[C@H]2O)c(=O)[nH]1 [UTP]	–	IC50 [5]: 100 µM

Source: publication PMC3082897 (2010)
